Source: paper PMC6851657 (Clinical Pharmacology and Therapeutics, 2019)

Key:
[1] = target: T1, CYP2C8 (Homo sapiens, UniProt P10632); experiment: Enzyme phenotyping, intrinsic clearance by retrograde calculation; type: in vitro ADME
T1 sequence (P10632 1-490): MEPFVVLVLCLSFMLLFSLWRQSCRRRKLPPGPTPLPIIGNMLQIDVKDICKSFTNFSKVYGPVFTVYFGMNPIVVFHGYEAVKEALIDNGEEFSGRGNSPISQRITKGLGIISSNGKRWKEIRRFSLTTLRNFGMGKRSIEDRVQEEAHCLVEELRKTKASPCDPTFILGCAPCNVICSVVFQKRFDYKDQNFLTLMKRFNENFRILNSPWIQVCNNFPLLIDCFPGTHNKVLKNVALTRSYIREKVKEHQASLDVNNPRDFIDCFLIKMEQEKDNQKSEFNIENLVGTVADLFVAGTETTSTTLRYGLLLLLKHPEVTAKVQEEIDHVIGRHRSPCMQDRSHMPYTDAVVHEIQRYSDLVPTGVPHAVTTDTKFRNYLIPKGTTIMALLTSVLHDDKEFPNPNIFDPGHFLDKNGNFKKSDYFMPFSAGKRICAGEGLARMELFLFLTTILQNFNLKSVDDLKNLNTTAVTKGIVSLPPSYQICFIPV

[2] = target: T2, CYP3A4 (Homo sapiens, UniProt P08684); experiment: as above; type: in vitro ADME
[3] = target: T2, CYP3A4; conditions: in vitro phenotyping, normalized to 100%; cited from earlier work

T2 sequence (P08684 whole entry): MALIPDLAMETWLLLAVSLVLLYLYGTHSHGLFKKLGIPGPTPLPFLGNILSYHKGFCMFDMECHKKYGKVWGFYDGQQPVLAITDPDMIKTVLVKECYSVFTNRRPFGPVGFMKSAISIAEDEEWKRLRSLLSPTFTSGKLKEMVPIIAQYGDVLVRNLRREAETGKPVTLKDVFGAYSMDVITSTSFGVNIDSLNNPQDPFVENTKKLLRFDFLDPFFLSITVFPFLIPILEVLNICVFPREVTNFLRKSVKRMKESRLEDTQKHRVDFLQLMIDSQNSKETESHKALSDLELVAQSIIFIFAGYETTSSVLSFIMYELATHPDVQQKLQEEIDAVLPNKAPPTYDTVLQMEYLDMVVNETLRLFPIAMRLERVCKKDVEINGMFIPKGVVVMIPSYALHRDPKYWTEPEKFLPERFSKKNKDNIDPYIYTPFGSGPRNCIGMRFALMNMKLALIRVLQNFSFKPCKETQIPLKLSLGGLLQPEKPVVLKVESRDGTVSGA

Compound: CCc1cc(/C(C)=N/OCc2ccc(C3CCCCC3)c(C(F)(F)F)c2)ccc1CN1CC(C(=O)O)C1 [siponimod]
- CLint (CYP2C8) [1]: 2.941 µL/min/pmol
- fmCYP2C8 ([1]; fraction metabolized): 0.017
- CLint (CYP3A4) [2]: 5.607 µL/min/pmol
- fmCYP3A4 ([2]; CYP2C9*1/*1): 0.175
- fmCYP3A4 ([2]; CYP2C9*1/*2): 0.189
- fmCYP3A4 ([2]; CYP2C9*1/*3): 0.287
- fmCYP3A4 ([2]; CYP2C9*2/*2): 0.244
- fmCYP3A4 ([2]; CYP2C9*2/*3): 0.343
- fmCYP3A4 ([2]; fraction metabolized): 0.185
- contribution of CYP3A4 to metabolism [3]: 18.5%
